Assay results taken from patent US20110033393A1, “Hydrazone Compounds and Their Use” (priority 2009, published 2011).

target: T1, human TRPM5 ion channel (Homo sapiens, UniProt Q9NZQ8); test: FLIPR-based assay for membrane potential and calcium mobilization (TRPM5 inhibiting activity); format: cell-based; settings: live cells, 30° C., read-out: hTrpM5 IC50
T1 sequence (Q9NZQ8 1-1165): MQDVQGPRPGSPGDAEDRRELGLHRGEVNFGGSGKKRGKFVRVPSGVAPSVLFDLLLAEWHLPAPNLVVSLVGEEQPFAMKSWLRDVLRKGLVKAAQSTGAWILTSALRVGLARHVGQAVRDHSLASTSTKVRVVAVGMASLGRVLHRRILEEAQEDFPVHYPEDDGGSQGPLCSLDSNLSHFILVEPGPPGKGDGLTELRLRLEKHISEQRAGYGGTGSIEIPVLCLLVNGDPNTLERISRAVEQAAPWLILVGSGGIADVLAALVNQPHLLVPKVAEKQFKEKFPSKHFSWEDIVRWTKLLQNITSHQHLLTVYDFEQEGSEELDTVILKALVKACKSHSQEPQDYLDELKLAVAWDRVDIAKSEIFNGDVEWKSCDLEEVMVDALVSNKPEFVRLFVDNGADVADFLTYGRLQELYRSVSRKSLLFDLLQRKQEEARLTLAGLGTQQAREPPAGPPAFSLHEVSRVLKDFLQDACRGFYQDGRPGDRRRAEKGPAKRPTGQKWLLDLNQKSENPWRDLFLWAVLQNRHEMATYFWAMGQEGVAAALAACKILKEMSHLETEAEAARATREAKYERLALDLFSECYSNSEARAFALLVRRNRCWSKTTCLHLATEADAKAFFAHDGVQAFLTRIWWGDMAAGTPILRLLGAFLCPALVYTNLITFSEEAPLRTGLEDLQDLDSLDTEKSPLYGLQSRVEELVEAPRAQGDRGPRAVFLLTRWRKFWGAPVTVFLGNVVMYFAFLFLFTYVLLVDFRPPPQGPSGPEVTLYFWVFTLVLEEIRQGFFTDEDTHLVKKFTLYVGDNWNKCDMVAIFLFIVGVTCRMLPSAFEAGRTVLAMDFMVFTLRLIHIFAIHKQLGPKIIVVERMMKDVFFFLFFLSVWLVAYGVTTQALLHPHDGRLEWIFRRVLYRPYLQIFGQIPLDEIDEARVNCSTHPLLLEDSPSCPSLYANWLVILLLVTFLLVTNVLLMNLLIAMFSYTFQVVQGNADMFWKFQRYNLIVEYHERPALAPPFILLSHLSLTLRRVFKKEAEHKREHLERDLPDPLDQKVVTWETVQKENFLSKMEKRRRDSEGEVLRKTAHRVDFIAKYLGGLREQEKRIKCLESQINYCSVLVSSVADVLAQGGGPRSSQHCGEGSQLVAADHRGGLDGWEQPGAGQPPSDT
Protocol: The activity of compounds of the present invention on human TRPM5 ion channel was measured using the FLIPR-based (fluorescent imaging plate reader) assay for membrane potential and calcium mobilization described in U.S. Patent Application Publication No. 2008/0249189 A1 in live cells, wherein the assay is performed at 30° C. Determinations of affinity and efficacy were derived from measurements of TRPM5 activity over a range of compound concentrations. The concentration range was achieved by 10 serial dilutions (either 2-fold or 3-fold decrements) from a maximum concentration of no greater that 100 μM. Curver fitting was performed on the resulting data to yield concentration-effect functions, from which the half-maximal inhibitory concentration (IC50) was derived for all the tested compounds. The IC50 values were considered to be accurate reflections of affinity between the compounds and TRPM5.
Representative compounds of the present invention have been tested in the FLIPR assay for TRPM5 inhibiting activity, which is described in detail above.

SMILES	IC50 [nM]
COc1ccc(/C=N/NC(=O)[C@@H]2C[C@H]2c2cccc(C(F)(F)F)c2)cc1OC (relative stereo) [Example 6, trans-N′-(3,4-Dimethoxybenzylidene)-2-(3-(trifluoromethyl)phenyl)cyclopropanecarbohydrazide]	37
COc1cc(/C=N/NC(=O)[C@@H]2C[C@H]2c2ccccc2)cc2cccnc12 (relative stereo) [Example 22, trans-N′-((8-Methoxyquinolin-6-yl)methylene)-2-phenylcyclopropanecarbohydrazide]	90
O=C(N/N=C/c1cc(Cl)c2ncccc2c1)[C@@H]1C[C@H]1c1ccccc1 (relative stereo) [Example 25, trans-N′-((8-Chloroquinolin-6-yl)methylene)-2-phenylcyclopropanecarbohydrazide]	340
O=C(N/N=C/c1cc(Cl)c2ncccc2c1)[C@@H]1C[C@H]1c1cccc(Cl)c1 (relative stereo) [Example 28, trans-2-(3-Chlorophenyl)-N′-((8-chloroquinolin-6-yl)methylene)cyclopropanecarbohydrazide]	650
Cc1cc(/C=N/NC(=O)[C@@H]2C[C@H]2c2cccc(Cl)c2)cc2cccnc12 (relative stereo) [Example 29, trans-2-(3-Chlorophenyl)-N′-((8-methylquinolin-6-yl)methylene)cyclopropanecarbohydrazide]	800
O=C(N/N=C/c1ccc2ncccc2n1)[C@@H]1C[C@H]1c1cccc(Cl)c1 (relative stereo) [Example 31, trans-N′-((1,5-Naphthyridin-2-yl)methylene)-2-(3-chlorophenyl)cyclopropanecarbohydrazide]	~50000
COc1ccc(/C=N/NC(=O)[C@@H]2C[C@H]2c2ccc3ccccc3n2)cc1OC (relative stereo) [Example 36, trans-N′-(3,4-Dimethoxybenzylidene)-2-(quinolin-2-yl)cyclopropanecarbohydrazide]	930
COc1ccc(/C=N/NC(=O)[C@@H]2C[C@H]2c2cccc(C)n2)cc1OC (relative stereo) [Example 37, trans-N′-(3,4-Dimethoxybenzylidene)-2-(6-methylpyridin-2-yl)cyclopropanecarbohydrazide]	3200
COc1ccc(C=NNC(=O)[C@@H]2C[C@H]2c2cnc3ccccc3c2)cc1OC (relative stereo) [Example 38, trans-N′-(3,4-Dimethoxybenzylidene)-2-(quinolin-3-yl)cyclopropanecarbohydrazide]	610
COc1ccc([C@@H]2C[C@H]2C(=O)N/N=C/c2cc(C)c3ncccc3c2)cn1 (relative stereo) [Example 41, trans-2-(6-Methoxypyridin-3-yl)-N′-((8-methylquinolin-6-yl)methylene)cyclopropanecarbohydrazide]	5000
COc1cccc([C@@H]2C[C@H]2C(=O)N/N=C/c2cc(C)c3ncccc3c2)n1 (relative stereo) [Example 42, trans-2-(6-Methoxypyridin-2-yl)-N′-((8-methylquinolin-6-yl)methylene)cyclopropanecarbohydrazide]	410
Cc1cc(C=NNC(=O)C2CC2c2ccccc2)cc2cccnc12 (single isomer, unassigned) [11 (E1), trans-N′-((8-Methylquinolin-6-yl)methylene)-2-phenylcyclopropanecarbohydrazide, E1 enantiomer]	> 10000
Cc1cc(C=NNC(=O)C2CC2c2ccccc2)cc2cccnc12 (single isomer, unassigned) [11 (E2), trans-N′-((8-Methylquinolin-6-yl)methylene)-2-phenylcyclopropanecarbohydrazide, E2 enantiomer]	240
COc1ccc(/C=N/NC(=O)C(C)Sc2cccc(Cl)c2)cc1OC (stereo not drawn) [Example 1, 2-(3-Chlorophenylthio)-N′-(3,4-dimethoxybenzylidene)propanehydrazide]	55
COc1ccc(/C=N/NC(=O)CCc2cn(C)c3ccccc23)cc1OC [Example 2, N′-(3,4-dimethoxybenzylidene)-3-(1-methyl-1H-indol-3-yl)propanehydrazide]	51
Cc1cn(CCC(=O)N/N=C/c2cc(C)c3ncccc3c2)c2ccccc12 [Example 3, 3-(3-Methyl-1H-indol-1-yl)-N′-((8-methylquinolin-6-yl)methylene)propanehydrazide]	30
COc1cc(/C=N/NC(=O)CCn2cc(C)c3ccccc32)ccc1OCCCO [Example 4, N′-(4-(3-Hydroxypropoxy)-3-methoxybenzylidene)-3-(3-methyl-1H-indol-1-yl)propanehydrazide]	500
COc1ccc(/C=N/NC(=O)NCCc2ccc(Cl)cc2)cc1OC [Example 5, N-(4-Chlorophenethyl)-2-(3,4-dimethoxybenzylidene)hydrazinecarboxamide]	51
COc1ccc(/C=N/NC(=O)CCn2cc(C)c3c(C)cccc32)cc1OC [Example 7, N′-(3,4-Dimethoxybenzylidene)-3-(3,4-dimethyl-1H-indol-1-yl)propanehydrazide]	1.8
COc1cc(F)c(/C=N/NC(=O)CCn2cc(C)c3c(C)cccc32)cc1OC [Example 8, 3-(3,4-Dimethyl-1H-indol-1-yl)-N′-(2-fluoro-4,5-dimethoxybenzylidene)propanehydrazide]	3
COc1ccc(/C=N/N(C)C(=O)C2CC2c2ccccc2)cc1OC (stereo not drawn) [Example 9, trans-N′-(3,4-Dimethoxybenzylidene)-N-methyl-2-phenylcyclopropanecarbohydrazide]	5000
COc1cc(/C=N/NC(=O)CCn2cc(C)c3c(C)cccc32)ccc1OCc1ccccc1 [Example 12, N′-(4-(Benzyloxy)-3-methoxybenzylidene)-3-(3,4-dimethyl-1H-indol-1-yl)propanehydrazide]	80
COc1cc(/C=N/NC(=O)CCn2cc(C)c3c(C)cccc32)ccc1OCc1ccccn1 [Example 13, 3-(3,4-Dimethyl-1H-indol-1-yl)-N′-(3-methoxy-4-(pyridin-2-ylmethoxy)benzylidene)propanehydrazide]	66
COc1ccc(/C=N/NC(=O)CCn2cc(C)c3cccnc32)cc1OC [Example 14, N′-(3,4-Dimethoxybenzylidene)-3-(3-methyl-1H-pyrrolo[2,3-b]pyridin-1-yl)propanehydrazide]	680
COc1cc(/C=N/NC(=O)CCn2cc(C)c3c(C)cccc32)cc(Cl)c1OC [Example 15, N′-(3-Chloro-4,5-dimethoxybenzylidene)-3-(3,4-dimethyl-1H-indol-1-yl)propanehydrazide]	38
COc1cc(/C=N/NC(=O)CCn2cc(C)c3c(C)cccc32)ccc1OCc1cccnc1 [Example 16, 3-(3,4-Dimethyl-1H-indol-1-yl)-N′-(3-methoxy-4-(pyridin-3-ylmethoxy)benzylidene)propanehydrazide]	53
COc1ccc(/C=N/NC(=O)CCn2cnc3c(C)cccc32)cc1OC [Example 17, N′-(3,4-Dimethoxybenzylidene)-3-(4-methyl-1H-benzo[d]imidazol-1-yl)propanehydrazide]	2400
COc1cc(/C=N/NC(=O)CCn2cc(C)c3c(C)cccc32)ccc1OCc1ccncc1 [Example 18, 3-(3,4-Dimethyl-1H-indol-1-yl)-N′-(3-methoxy-4-(pyridin-4-ylmethoxy)benzylidene)propanehydrazide]	46
COc1cc(/C=N/NC(=O)CCn2cc(C)c3c(C)cccc32)ccc1OCc1cccnn1 [Example 19, 3-(3,4-Dimethyl-1H-indol-1-yl)-N′-(3-methoxy-4-(pyridazin-3-ylmethoxy)benzylidene)propanehydrazide]	180
COc1cc(/C=N/NC(=O)C2CC2c2ccccc2)ccc1OCc1cccnc1 (stereo not drawn) [Example 20, trans-N′-(3-Methoxy-4-(pyridin-3-ylmethoxy)benzylidene)-2-phenylcyclopropanecarbohydrazide]	1600
